# Molecular target: T1, ERα protein (HiBiT-tagged) in ESR1_HiBiT KI MCF7 cells (Homo sapiens, UniProt P03372)
# T1 sequence (P03372 1-595): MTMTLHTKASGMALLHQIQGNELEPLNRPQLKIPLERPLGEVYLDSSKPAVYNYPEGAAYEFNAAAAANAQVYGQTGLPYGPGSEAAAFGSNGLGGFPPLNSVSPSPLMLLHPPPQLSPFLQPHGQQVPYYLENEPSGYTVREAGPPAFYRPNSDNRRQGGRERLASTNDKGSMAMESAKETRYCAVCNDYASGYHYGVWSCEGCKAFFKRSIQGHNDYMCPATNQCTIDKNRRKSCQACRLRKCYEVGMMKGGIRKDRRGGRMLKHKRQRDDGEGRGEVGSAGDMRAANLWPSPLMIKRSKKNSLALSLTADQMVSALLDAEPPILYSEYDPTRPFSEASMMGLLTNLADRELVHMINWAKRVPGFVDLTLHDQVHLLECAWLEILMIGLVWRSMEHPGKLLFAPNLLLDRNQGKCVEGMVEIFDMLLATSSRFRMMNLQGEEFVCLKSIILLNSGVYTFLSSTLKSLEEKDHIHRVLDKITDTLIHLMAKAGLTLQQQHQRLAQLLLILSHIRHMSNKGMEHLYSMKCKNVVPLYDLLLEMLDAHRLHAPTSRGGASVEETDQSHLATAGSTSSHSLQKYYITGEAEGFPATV
# Assay: Nano Glo HiBiT Lytic Degradation Assay
# Assay type: cell-based
# Details: 6 hours with compound, 14-point dose response 1:3, bell-shape curve fit, half-maximal effect of first Hill model, read-out: MCF7 ESR1 HiBiT - (DC50)
# Method in brief: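 HiBiT-tagged endogenous ERα remaining in MCF7 knock-in cells was quantified by lytic luminescence after a 6 h treatment. DC50 values derive from a bell-shaped curve, taken at the first Hill component's half-maximal effect.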
row,SMILES,DC50 [nM]
1,"[2H]c1c([2H])c([2H])c([C@H]2CC(F)(F)c3cc(O)ccc3[C@H]2c2ccc(N3CCC(CN4CCN(c5ccc6c(c5)CN([C@H]5CCC(=O)NC5=O)C6=O)CC4)CC3)cc2)c([2H])c1[2H] [Compound I-335, (S)-3-(5-(4-((1-(4-((1R,2S)-4,4-difluoro-6-hydroxy-2-(phenyl-d5)-1,2,3,4-tetrahydronaphthalen-1-yl)phenyl)piperidin-4-yl)methyl)piperazin-1-yl)-1-oxoisoindolin-2-yl)piperidine-2,6-dione]",0.36
2,"CC1(C)CC([C@H]2CCc3cc(O)ccc3[C@H]2c2ccc(N3CCC(CN4CCN(c5ccc6c(c5)CN([C@H]5CCC(=O)NC5=O)C6=O)CC4)CC3)cc2)CC(C)(C)C1 [Compound I-116, (3.5)-3-[5-[4-[[1-[4-[(1S,2S)-6-hydroxy-2-(3,3,5,5-tetramethylcyclohexyl)tetralin-1-yl]phenyl]-4-piperidyl]methyl]piperazin-1-yl]-1-oxo-isoindolin-2-yl]piperidine-2,6-dione]",≥ 10000
3,"O=C1CC[C@@H](N2Cc3cc(N4CCC(CN5CCC(n6cc([C@@H]7c8ccc(O)cc8CC[C@@H]7c7ccccc7)cn6)CC5)CC4)ccc3C2=O)C(=O)N1 (single isomer, unassigned) [Compound I-48]",≥ 10000
4,"Cc1cc(F)ccc1[C@H]1CC(F)(F)c2cc(O)ccc2[C@H]1c1ccc(N2CCC(CN3CCN(c4ccc5c(c4)CN([C@H]4CCC(=O)NC4=O)C5=O)CC3)CC2)cc1 [Compound I-326, (S)-3-(5-(4-((1-(4-((1R,2S)-4,4-difluoro-2-(4-fluoro-2-methylphenyl)-6-hydroxy-1,2,3,4-tetrahydronaphthalen-1-yl)phenyl)piperidin-4-yl)methyl)piperazin-1-yl)-1-oxoisoindolin-2-yl)piperidine-2,6-dione]",0.58
5,"Cc1cc(F)cc([C@@H]2OCc3cc(O)ccc3[C@@H]2c2ccc(N3CCC(CN4CCN(c5ccc6c(c5)CN([C@H]5CCC(=O)NC5=O)C6=O)CC4)CC3)cc2)c1 [Compound I-378, (S)-3-(5-(4-((1-(4-((3R,4S)-3-(3-fluoro-5-methylphenyl)-7-hydroxyisochroman-4-yl)phenyl)piperidin-4-yl)methyl)piperazin-1-yl)-1-oxoisoindolin-2-yl)piperidine-2,6-dione]",≥ 10000
6,"O=C1CCC(N2Cc3cc(N4CCN(CC5CCN(c6ccc([C@@H]7c8ccc(O)cc8C(F)(F)C[C@@H]7c7ccccc7)cc6)CC5)CC4)ccc3C2=O)C(=O)N1 (stereo partly drawn) [Compound I-305, 3-(5-(4-((1-(4-((1R,2S)-4,4-difluoro-6-hydroxy-2-phenyl-1,2,3,4-tetrahydronaphthalen-1-yl)phenyl)piperidin-4-yl)methyl)piperazin-1-yl)-1-oxoisoindolin-2-yl)piperidine-2,6-dione]",0.32
7,"C[C@@H]1OC2(CCCCC2)[C@@H](c2ccc(N3CCC(CN4CCN(c5ccc6c(c5)CN([C@H]5CCC(=O)NC5=O)C6=O)CC4)CC3)cc2)c2ccc(O)cc21 (single isomer, unassigned) [Compound I-270]",≥ 10000
8,"C[C@]1(C2CCCCC2)OCc2cc(O)ccc2[C@@H]1c1ccc(N2CCC(CN3CCN(c4ccc5c(c4)CN([C@H]4CCC(=O)NC4=O)C5=O)CC3)CC2)cc1 [Compound I-257, (S)-3-(5-(4-((1-(4-((3R,4S)-3-cyclohexyl-7-hydroxy-3-methylisochroman-4-yl)phenyl)piperidin-4-yl)methyl)piperazin-1-yl)-1-oxoisoindolin-2-yl)piperidine-2,6-dione]",3300
9,"Cn1c(=O)n([C@@H]2CCC(=O)NC2=O)c2ccc(N3CCN(CC4CCN(c5ccc([C@@H]6c7ccc(O)cc7CC[C@@H]6c6ccccc6)cc5)CC4)CC3)cc21 (single isomer, unassigned) [Compound I-276]",0.5
10,"O=C1CC[C@H](N2Cc3cc(N4C[C@H]5C[C@@H]4CN5CC4CCN(c5ccc([C@@H]6c7ccc(O)cc7CC[C@@H]6c6ccccc6)cc5)CC4)ccc3C2=O)C(=O)N1 (single isomer, unassigned) [II-5]",2
11,"Cc1cccc([C@@H]2CCc3cc(O)ccc3[C@@H]2c2ccc(N3CCC(CN4CCN(c5ccc6c(c5)CN([C@H]5CCC(=O)NC5=O)C6=O)CC4)CC3)cc2)c1 (single isomer, unassigned) [II-29]",1.24
12,"C[C@]1(C2CCCCC2)OCc2cc(O)ccc2[C@H]1c1ccc(N2CCC(CN3CCN(c4ccc5c(c4)CN([C@H]4CCC(=O)NC4=O)C5=O)CC3)CC2)cc1 (single isomer, unassigned) [Compound I-418]",0.33
13,"O=C1CCC(N2Cc3cc(N4CCN(CC5CCN(c6ccc([C@H]7c8ccc(O)cc8CC[C@H]7C7CCCC7)cc6)CC5)CC4)ccc3C2=O)C(=O)N1 (single isomer, unassigned) [Compound I-53]",0.92
14,"O=C1CCC(c2ccc(N3CCC4(CCN(CC5CCN(c6ccc([C@@H]7c8ccc(O)cc8C(F)(F)C[C@@H]7c7ccccc7)cc6)CC5)C4)CC3)cc2)C(=O)N1 (stereo partly drawn) [Compound I-308, 3-(4-(2-((1-(4-((1R,2S)-4,4-difluoro-6-hydroxy-2-phenyl-1,2,3,4-tetrahydronaphthalen-1-yl)phenyl)piperidin-4-yl)methyl)-2,8-diazaspiro[4.5]decan-8-yl)phenyl)piperidine-2,6-dione]",0.65
15,"C[C@]1(C2CCCCC2)CCc2cc(O)ccc2[C@H]1c1ccc(N2CCC(CN3CCN(c4ccc5c(c4)CN([C@H]4CCC(=O)NC4=O)C5=O)CC3)CC2)cc1 [Compound I-238, (S)-3-(5-(4-((1-(4-((1R,2R)-2-cyclohexyl-6-hydroxy-2-methyl-1,2,3,4-tetrahydronaphthalen-1-yl)phenyl)piperidin-4-yl)methyl)piperazin-1-yl)-1-oxoisoindolin-2-yl)piperidine-2,6-dione]",4
16,"O=C1CCC(c2ccc(N3CC[C@@H]4[C@H]3CCN4CC3CCN(c4ccc([C@@H]5c6ccc(O)cc6CC[C@@H]5c5ccccc5)cc4)CC3)cc2)C(=O)N1 (stereo partly drawn) [Compound I-176, 3-(4-((3aR,6aR)-4-((1-(4-((1R,2S)-6-hydroxy-2-phenyl-1,2,3,4-tetrahydronaphthalen-1-yl)phenyl)piperidin-4-yl)methyl)hexahydropyrrolo[3,2-b]pyrrol-1 (2H)-yl)phenyl)piperidine-2,6-dione]",3300
17,"C[C@@]1(C2CCCCC2)CCc2cc(O)ccc2[C@@H]1c1ccc(N2CCC(CN3CCN(c4ccc5c(c4)CN([C@H]4CCC(=O)NC4=O)C5=O)CC3)CC2)cc1 [Compound I-237, (S)-3-(5-(4-((1-(4-((1S,2S)-2-cyclohexyl-6-hydroxy-2-methyl-1,2,3,4-tetrahydronaphthalen-1-yl)phenyl)piperidin-4-yl)methyl)piperazin-1-yl)-1-oxoisoindolin-2-yl)piperidine-2,6-dione]",≥ 10000
18,"O=C1CC[C@H](N2Cc3cc(N4CCN(CC5CCN(c6ccc([C@H]7c8ccc(O)cc8C(F)(F)C[C@H]7c7ccccc7)cn6)CC5)CC4)ccc3C2=O)C(=O)N1 [Compound I-338, (3S)-3-[5-[4-[[1-[5-[(1R,2R)-4,4-difluoro-6-hydroxy-2-phenyl-tetralin-1-yl]-2-pyridyl]-4-piperidyl]methyl]piperazin-1-yl]-1-oxo-isoindolin-2-yl]piperidine-2,6-dione]",10
19,"O=C1CC[C@H](N2Cc3cc(N4CCN(CC5CCN(c6ccc([C@H]7c8ccc(O)cc8C(F)(F)C[C@H]7c7ccc(F)cc7F)cc6)CC5)CC4)ccc3C2=O)C(=O)N1 [Compound I-319, (S)-3-(5-(4-((1-(4-((1S,2R)-2-(2,4-difluorophenyl)-4,4-difluoro-6-hydroxy-1,2,3,4-tetrahydronaphthalen-1-yl)phenyl)piperidin-4-yl)methyl)piperazin-1-yl)-1-oxoisoindolin-2-yl)piperidine-2,6-dione]",108
20,"O=C1CC[C@H](N2Cc3cc(N4CCN(CC5CCN(c6ccc([C@@H]7c8ccc(O)cc8CCC78CCCCC8)cc6)CC5)CC4)ccc3C2=O)C(=O)N1 [Compound I-85, (S)-3-(5-(4-((1-(4-((R)-6′-hydroxy-3′,4′-dihydro-1′H-spiro[cyclohexane-1,2′-naphthalen]-1′-yl)phenyl)piperidin-4-yl)methyl)piperazin-1-yl)-1-oxoisoindolin-2-yl)piperidine-2,6-dione]",0.64
21,"C[C@@]1(C2CCCCC2)CCc2cc(O)ccc2[C@H]1c1ccc(N2CCC(CN3CCN(c4ccc5c(c4)CN([C@H]4CCC(=O)NC4=O)C5=O)CC3)CC2)cc1 [Compound I-240, (S)-3-(5-(4-((1-(4-((1R,2S)-2-cyclohexyl-6-hydroxy-2-methyl-1,2,3,4-tetrahydronaphthalen-1-yl)phenyl)piperidin-4-yl)methyl)piperazin-1-yl)-1-oxoisoindolin-2-yl)piperidine-2,6-dione]",3
22,"O=C1CCC(N2Cc3cc([C@H]4CCN(CC5CCN(c6ccc([C@@H]7c8ccc(O)cc8CC[C@@H]7c7ccccc7)cc6)CC5)C[C@@H]4F)ccc3C2=O)C(=O)N1 (single isomer, unassigned) [II-89]",1100

# Reference: patent publication US20250388565A1, “ESTROGEN RECEPTOR ALPHA DEGRADERS AND METHODS OF USE THEREOF” (Relay Therapeutics, Inc., priority 2022, published 2025)
